In one test the target is DCN1-UBC12 interaction (Homo sapiens (Human), UniProt Q96GG9). The test is described as follows: biochemical. The format is binding. As to conditions: Table 4, commercial compounds; read-out: TR-FRET IC50.
Chain of DCN1-UBC12 interaction (Q96GG9 60-248 limits assumed): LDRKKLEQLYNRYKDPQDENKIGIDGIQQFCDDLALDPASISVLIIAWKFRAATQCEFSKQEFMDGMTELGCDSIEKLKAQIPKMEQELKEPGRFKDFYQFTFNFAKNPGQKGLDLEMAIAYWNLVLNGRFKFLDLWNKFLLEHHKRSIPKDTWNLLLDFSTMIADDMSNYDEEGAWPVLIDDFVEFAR
As to `Cc1cc(NC(=O)C2CCN(C(=O)c3ccco3)CC2)ccc1Br` [C38], the IC50 (usually the midpoint of a concentration-inhibition curve) is above 67.6 µM.

Take `COCCC(=O)N1CCC(C(=O)Nc2ccc(-c3cc4ccccc4[nH]3)cc2)CC1` [C45]: the IC50 is above 67.6 µM.

Consider `CSc1cccc(NC(=O)C2CCN(C(=O)c3ccc(F)cc3)CC2)c1` [C4], for which the IC50 came out at 26.3 µM.

Staying with this test, now noted: Table 6, commercial compounds; read-out: TR-FRET IC50.
For the compound `CCN1CCN(C(=O)c2cnn(-c3nccc(-c4cccs4)n3)c2C(C)C)CC1` [E4], the IC50 was 13.1 µM.

`CCN(CC)CCN(C)C(=O)c1cnn(-c2nccc(-c3cccs3)n2)c1C1CC1` [E34]: the IC50 is above 67.6 µM.

On to `Cc1c(C(=O)NCC(C)(C)CN(C)C)cnn1-c1nccc(-c2cccs2)n1` [E47], for which the IC50 is above 67.6 µM.

As for `CCN(CC)CCN(CC)C(=O)c1cnn(-c2ncc(C)c(-c3cccs3)n2)c1COC` [E16], the half-inhibitory concentration (IC50) is 33.3 µM.

The same test, now with this note: Table 7, commercial compounds; read-out: TR-FRET IC50.
Consider `Cc1cccc(C(=O)NC2C(=O)Nc3c(c(C)nn3C)C2c2cccc(C)c2)c1` (centres unmarked) [F32], for which the 50% inhibitory concentration (IC50) is above 67.6 µM.

The test is the same for the next values; noted with them: read-out: TR-FRET IC50.
Take `CC(c1ccc2c(c1)OCO2)N1CCC(N(Cc2ccccc2)C(=O)Nc2cc(F)cc(C(F)(F)F)c2)CC1` (centres unmarked) [A128]: the half-inhibitory concentration (IC50) turned out to be 2.39 µM.

`O=C(Nc1cc(F)cc(C(F)(F)F)c1)N(Cc1ccccc1)C1CCN(CCCc2ccccc2)CC1` [A133]: the IC50 amounted to 3.21 µM.

With `CCn1cnc(NC(=O)NC2CCN(Cc3ccccc3)CC2)n1` [B47], the half-maximal inhibitory concentration (IC50) is above 67 µM.

For `CCCC(C)N1CCC(N(Cc2ccccc2)C(=O)Nc2ccc(-c3ccc(C(=O)OC)cc3)cc2)CC1` (centres unmarked) [A278], the IC50 is above 69.1 µM.

Regarding `CCCC(C)N1CCC(N(Cc2ccccc2)C(=O)Nc2ccccc2I)CC1` (centres unmarked) [A285], the IC50 is above 72.4 µM.

In the case of “1-Benzyl-1-(1-Hexylpiperidin-4-yl)-3-(3-(Trifluoromethyl)Phenyl)Urea [A289]”, the 50% inhibitory concentration (IC50) is above 73.2 µM.

As for `CCCC(C)N1CCC(N(Cc2ccccc2)C(=O)Nc2cccc(OC)c2OC)CC1` (centres unmarked) [A250], the IC50 is above 59.8 µM.

`CCCC(C)N1CCC(N(Cc2cccc(CNC(=O)CCl)c2)C(=O)Nc2cccc(C(F)(F)F)c2)CC1` (centres unmarked) [drawing 847]: the IC50 is below 0.01 µM.

As for `CCOc1ccc(C(=O)N2CCCC(c3nc4ccccc4s3)C2)cc1` (centres unmarked) [D25], the IC50 is above 67.6 µM.

With `O=C(Nc1cc(C(F)(F)F)ccc1Cl)NC1CCN(Cc2ccccc2)CC1` [B101], the IC50 was above 69.8 µM.

For the compound `CCCN1CCC(NC(=O)Nc2ccc(Cl)c(Cl)c2)CC1` [B56], the IC50 is above 67.6 µM.

On to `CCCC(C)N1CCC(N(Cc2ccccc2)C(=O)Nc2ccccc2F)CC1` (centres unmarked) [A295], for which the IC50 was above 81.1 µM.

Regarding `CCCC(C)N1CCC(N(Cc2ccccc2)C(=O)Nc2ccc(CN3CCCC3)cc2)CC1` (centres unmarked) [A247], the IC50 is above 58.5 µM.

As to `CCCN1CCC(N(CCOC)C(=O)Nc2cccc(C(F)(F)F)c2)CC1` [A248, 1-(2-Methoxyethyl)-1-(1-Propylpiperidin-4-yl)-3-(3-(Trifluoromethyl)Phenyl)Urea], the IC50 is above 58.9 µM.

Regarding `CCCCN1CCC(N(Cc2ccccc2)C(=O)Nc2ccc(F)c(C(F)(F)F)c2)CC1` [A26], the half-maximal inhibitory concentration (IC50) amounted to 0.163 µM.

Regarding `CCCC(C)N1CCC(N(Cc2ccccc2)C(=O)Nc2ccc(C(F)(F)F)cc2[NH2+][O-])CC1` (centres unmarked) [A174], the IC50 stood at 13.2 µM.

Turning to `CCCC(C)N1CCC(N(Cc2ccccc2)C(=O)Nc2ccc(OC)cc2)CC1` (centres unmarked) [A158], the IC50 stood at 7.67 µM.

Take `CCCC(C)N1CCC(N(Cc2ccc3c(c2)OCO3)C(=O)Nc2ccc(F)c(C(F)(F)F)c2)CC1` (centres unmarked) [A61]: the IC50 is 0.371 µM.

As to `CCC(CC)N1CCC(N(Cc2ccccc2)C(=O)Nc2cc(F)cc(C(F)(F)F)c2)CC1` [A120], the IC50 was 0.616 µM.

As to `CCCCN1CCC(N(Cc2ccccc2)C(=O)Nc2cc(C(F)(F)F)cc(C(F)(F)F)c2)CC1` [A274], the IC50 is above 68.2 µM.

On to `CCCC(C)N1CCC(N(Cc2ccccc2)C(=O)Nc2c(C)cc(Br)cc2C)CC1` (centres unmarked) [A265], for which the IC50 was above 65.7 µM.

Consider `O=C(Nc1ccc(CN2CCOCC2)cc1)Nc1cccc(C(F)(F)F)c1` [B108], for which the IC50 is above 72.8 µM.

With `C=CC(=O)NCc1ccccc1CN(C(=O)Nc1cccc(C(F)(F)F)c1)C1CCN(C(C)CCC)CC1` (centres unmarked) [drawing 846], the IC50 was below 0.01 µM.

Consider `CCN1CCC(NC(=O)Nc2cccc(C(F)(F)F)c2)CC1` [B15], for which the IC50 amounted to 49.7 µM.

As for `Cn1nccc1-c1cccc(NC(=O)NC2CCN(Cc3ccccc3)CC2)c1` [A263, 1-(1-Benzylpiperidin-4-yl)-3-(3-(1-Methyl-1H-Pyrazol-5-yl)Phenyl)Urea], the IC50 is above 64.6 µM.

As for `CCCC1CCC(N(Cc2ccccc2)C(=O)Nc2cccc(C(F)(F)F)c2)CC1` (centres unmarked) [A232], the IC50 is above 38.7 µM.

Take `COc1ccccc1NC(=O)N(Cc1ccco1)C1CCN(C(C)=O)CC1` [B68]: the IC50 was above 67.6 µM.

With `O=C(CN1CCC(Cc2ccccc2)CC1)Nc1cc(C(F)(F)F)cc(C(F)(F)F)c1` [B118], the IC50 is above 78.5 µM.

Regarding `O=C(Nc1cc(F)cc(C(F)(F)F)c1)N(Cc1ccccc1)C1CCN(Cc2cccc(Oc3ccccc3)c2)CC1` [A217], the IC50 was above 23.9 µM.

Turning to `COc1ccc(CN(C(=O)Nc2cc(C)ccc2C)C2CCN(C(C)=O)CC2)cc1` [B82], the IC50 is above 67.6 µM.

Consider `CCCC(C)N1CCC(N(Cc2ccccc2)C(=O)Nc2ccc(C(=O)OC)cc2Cl)CC1` (centres unmarked) [A189], for which the IC50 turned out to be 37.8 µM.

For `C#CCCCN1CCC(N(Cc2ccccc2NC(=O)CCl)C(=O)Nc2cccc(C(F)(F)F)c2)CC1` [A253], the IC50 is above 6.89 µM.

For the compound `O=C(Nc1cccc(F)c1)NC1CCN(Cc2ccccc2)CC1` [B64], the IC50 is above 67.6 µM.

Regarding `CCCC(C)N1CCC(N(Cc2ccccc2)C(=O)Nc2ccc(Cl)c(F)c2)CC1` (centres unmarked) [A49], the IC50 was determined as 0.265 µM.

On to `CCOC(=O)c1ccccc1NC(=O)N(C(C)C)C1CCN(C(C)=O)CC1` [B66], for which the half-maximal inhibitory concentration (IC50) was above 67.6 µM.

In the case of `O=C(c1ccc(F)cc1)N1CCCC(c2nc3ccccc3s2)C1` (centres unmarked) [D16], the IC50 was above 48.7 µM.

Regarding `CC(=O)c1cccc(NC(=O)NC2CCN(Cc3ccccc3)CC2)c1` [B102], the IC50 is above 70.6 µM.

`CCCN1CCC(N(CC2CCCCC2)C(=O)Nc2cccc(C(F)(F)F)c2)CC1` [A92, 1-(Cyclohexylmethyl)-1-(1-Propylpiperidin-4-yl)-3-(3-(Trifluoromethyl)Phenyl)Urea]: the IC50 stood at 1.23 µM.

With `CCCC(C)N1CCC(N(Cc2ccccc2)C(=O)Nc2cccc3cccnc23)CC1` (centres unmarked) [A139], the 50% inhibitory concentration (IC50) was determined as 4.13 µM.

For the compound `O=C(Nc1cc(F)cc(C(F)(F)F)c1)N(Cc1ccccc1)C1CCN(Cc2cncn2Cc2ccccc2)CC1` [A208], the IC50 was above 21.1 µM.

`O=C(Nc1cc(F)cc(C(F)(F)F)c1)N(Cc1ccccc1)C1CCN(CC2CCOC2)CC1` (centres unmarked) [A144]: the IC50 was 4.49 µM.

Turning to `O=C(Nc1cccc(C(F)(F)F)c1)NC1CCN(Cc2cccc(F)c2)CC1` [A183, 1-(1-(3-Fluorobenzyl)Piperidin-4-yl)-3-(3-(Trifluoromethyl)Phenyl)Urea], the half-maximal inhibitory concentration (IC50) came to 21.9 µM.

In the case of `O=C(c1cccc(C(F)(F)F)c1)N(Cc1ccccc1)C1CC2CCC(C1)N2Cc1ccccc1` (centres unmarked) [A234], the IC50 is above 40.6 µM.

For the compound `CCCC(C)N1CCC(N(Cc2ccccc2)C(=O)Nc2ccc(F)c(Cl)c2)CC1` (centres unmarked) [A53], the IC50 worked out at 0.287 µM.

Regarding `CCCCN1CCC(N(Cc2ccccc2)C(=O)Nc2cc(F)cc(C(F)(F)F)c2)CC1` [A45], the IC50 was 0.256 µM.

Take `CCCCN1CCC(N(Cc2ccccc2)C(=O)Nc2cncc(C(F)(F)F)c2)CC1` [A262]: the IC50 is above 63.4 µM.

Turning to `CN1CCC(NC(=O)Nc2cccc(C(F)(F)F)c2)CC1` [B100], the IC50 was above 68.1 µM.

For `CCOc1ccc(NC(=O)N(Cc2ccco2)C2CCN(CC)CC2)cc1` [B80], the IC50 was above 67.6 µM.

The record behind these values is US11116757B2 (priority 2015, dated 2021).
